The values that follow come from patent publication US9624209B2, “Substituted phenylureas and phenylamides as vanilloid receptor ligands” (Gruenenthal GmbH, priority 2009, dated 2017).

The target in one test is T1, vanilloid receptor 1 (VR1/TRPV1 receptor) (Homo sapiens, UniProt Q8NER1).
T1 construct: expressed in transfected cells; host or cells: CHO K1 cells (ECACC), stably transfected
T1 sequence (Q8NER1 whole entry): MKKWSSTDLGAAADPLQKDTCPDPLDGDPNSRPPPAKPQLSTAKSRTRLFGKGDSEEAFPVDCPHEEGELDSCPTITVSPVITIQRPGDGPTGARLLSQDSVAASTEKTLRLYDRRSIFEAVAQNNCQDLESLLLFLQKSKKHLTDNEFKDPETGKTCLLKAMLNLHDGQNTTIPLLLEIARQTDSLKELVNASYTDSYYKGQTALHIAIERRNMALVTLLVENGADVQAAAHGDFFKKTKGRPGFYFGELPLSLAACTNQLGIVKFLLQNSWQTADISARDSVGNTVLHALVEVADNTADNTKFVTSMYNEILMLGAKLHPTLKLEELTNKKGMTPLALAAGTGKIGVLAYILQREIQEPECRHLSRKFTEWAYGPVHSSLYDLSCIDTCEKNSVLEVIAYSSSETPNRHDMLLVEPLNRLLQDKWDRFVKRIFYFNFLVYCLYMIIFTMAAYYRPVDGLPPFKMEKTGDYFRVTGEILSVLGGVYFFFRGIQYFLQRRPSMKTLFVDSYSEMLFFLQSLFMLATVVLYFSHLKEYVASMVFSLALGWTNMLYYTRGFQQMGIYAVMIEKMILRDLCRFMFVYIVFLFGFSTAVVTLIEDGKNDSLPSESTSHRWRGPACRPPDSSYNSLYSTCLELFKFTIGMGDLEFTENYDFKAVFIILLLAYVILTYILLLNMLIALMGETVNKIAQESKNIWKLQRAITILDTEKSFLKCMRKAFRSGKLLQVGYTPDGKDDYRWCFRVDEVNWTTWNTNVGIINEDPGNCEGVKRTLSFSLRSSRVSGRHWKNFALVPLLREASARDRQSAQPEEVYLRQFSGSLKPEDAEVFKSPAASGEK
As to the kind of experiment: VR1/TRPV1 receptor affinity, capsaicin stimulus (human). In kind it is cell-based, human being. Also on record: key to (f) Ki (human being) [nM] Cap: result in words: AG=agonist; pAG=partial agonist; NE=no effect. Conditions: @ 5 μM, Tables 8-12.
For “4-[[[5-tert-Butyl-2-(3-chlorophenyl)-2H-pyrazol-3-yl]-methyl-carbamoyl]amino]-2-chloro-benzoic acid [Example E55]”, the “(f) Ki (human being) [nM] Cap: inhibition (as a percentage)” value was 28% @ 5 μM.

The same test, now with this note: @ 5 μM, Tables 8-12, read-out: (f) Ki (human being) [nM] Cap: inhibition (as a percentage).
For the compound `COc1cc(NC(=O)N(C)c2cc(C(C)(C)C)nn2-c2cccc(Cl)c2)ccc1C(=O)O` [Example E56, 4-[[[5-tert-Butyl-2-(3-chlorophenyl)-2H-pyrazol-3-yl]-methyl-carbamoyl]amino]-2-methoxy-benzoic acid], the inhibition at 5 µM worked out at 52%.
Consider `O=C(NCc1cc(C(F)(F)F)nn1-c1cccc(Cl)c1)Nc1ccc(CN2CCCC2)cc1` [Example B99, 1-[[2-(3-Chlorophenyl)-5-(trifluoromethyl)-2H-pyrazol-3-yl]-methyl]-3-[4-(pyrrolidin-1-yl-methyl)-phenyl]-urea], for which the inhibition at 5 µM was 43%.

Still in this test, the particulars now being: Tables 8-12.
As to `CC(C)(C)c1cc(CNC(=O)Nc2cc(F)c(O)c(F)c2)n(-c2cccc(Cl)c2)n1` [Example A11, 1-[[5-tert-Butyl-2-(3-chlorophenyl)-2H-pyrazol-3-yl]-methyl]-3-(3,5-difluoro-4-hydroxy-phenyl)-urea], the “(f) Ki (human being) [nM] Cap: result in words” value is “AG”.

Still in this test, the particulars now being: Tables 8-12, read-out: (f) Ki (human being) [nM] Cap.
In the case of “4-[1-[[5-tert-Butyl-2-(3-chlorophenyl)-2H-pyrazol-3-yl]-methyl-carbamoyl]-ethyl]-N-[4-(trifluoromethyl)-phenyl]-benzamide [Example E47]”, the Ki stood at 3 nM.
Take `CS(=O)(=O)NCc1ccc(NC(=O)NCc2cc(C(F)(F)F)nn2-c2ccc(F)c(F)c2)cc1F` [Example B49, 1-[[2-(3,4-Difluoro-phenyl)-5-(trifluoromethyl)-2H-pyrazol-3-yl]-methyl]-3-[3-fluoro-4-(methanesulfonamido-methyl)-phenyl]-urea]: the inhibition constant Ki turned out to be 11 nM.
Same read-out and setting: the value for `CC(C(=O)NCc1cc(C(F)(F)F)nn1-c1cccc(Cl)c1)c1ccc(CNS(N)(=O)=O)c(F)c1` (centres unmarked) [Example B97, N-[[2-(3-Chlorophenyl)-5-(trifluoromethyl)-2H-pyrazol-3-yl]-methyl]-2-[3-fluoro-4-[(sulfamoylamino)-methyl]-phenyl]-propionamide] was 1 nM; that for `CC(C)c1cccc(-n2nc(C(F)(F)F)cc2CNC(=O)Nc2ccc(CNS(N)(=O)=O)cc2)c1` [Example B79, 1-[[2-(3-Isopropyl-phenyl)-5-(trifluoromethyl)-2H-pyrazol-3-yl]-methyl]-3-[4-[(sulfamoylamino)-methyl]-phenyl]-urea] was 2 nM; that for “4-[1-[[5-tert-Butyl-2-(3-chlorophenyl)-2H-pyrazol-3-yl]-methyl-carbamoyl]-ethyl]-N-(4-chlorophenyl)-benzamide [Example E34]” was 0.5 nM.
In the case of `CC(C)(C)c1cc(CNC(=O)Nc2ccc(N3CC(O)C3)c(F)c2)n(-c2cccc(Cl)c2)n1` [Example C7, 1-[[5-tert-Butyl-2-(3-chlorophenyl)-2H-pyrazol-3-yl]-methyl]-3-[3-fluoro-4-(3-hydroxy-azetidin-1-yl)-phenyl]-urea], the Ki turned out to be 15 nM.
For `CC(C)(C)c1cc(CNC(=O)Nc2cc(F)c(CNS(C)(=O)=O)c(F)c2)n(-c2cccc(Cl)c2)n1` [Example B32, 1-[[5-tert-Butyl-2-(3-chlorophenyl)-2H-pyrazol-3-yl]-methyl]-3-[3,5-difluoro-4-(methanesulfonamido-methyl)-phenyl]-urea], the Ki was found to be 2 nM.
For the compound “4-[[[5-tert-Butyl-2-(3-chlorophenyl)-2H-pyrazol-3-yl]-methyl-carbamoyl]amino]-2-chloro-benzoic acid methyl ester [Example E60]”, the Ki came out at 19 nM.
In the case of `NS(=O)(=O)NCc1ccc(NC(=O)NCc2cc(C(F)(F)F)nn2-c2cccc(Cl)c2)cc1` [Example B35, 1-[[2-(3-Chlorophenyl)-5-(trifluoromethyl)-2H-pyrazol-3-yl]-methyl]-3-[4-[(sulfamoylamino)-methyl]-phenyl]-urea], the Ki stood at 9 nM.
The same measure, in the same setting: the value for `CC(C(=O)NCc1cc(C(F)(F)F)nn1-c1cccc(F)c1)c1ccc(CNS(C)(=O)=O)c(F)c1` (centres unmarked) [Example B7, 2-[3-Fluoro-4-(methanesulfonamido-methyl)-phenyl]-N-[[2-(3-fluorophenyl)-5-(trifluoromethyl)-2H-pyrazol-3-yl]-methyl]-propionamide] was 7 nM; that for `CS(=O)(=O)NCc1ccc(NC(=O)NCc2cc(C(F)(F)F)nn2-c2cccc(Cl)c2)cc1F` [Example B52, 1-[[2-(3-Chlorophenyl)-5-(trifluoromethyl)-2H-pyrazol-3-yl]-methyl]-3-[3-fluoro-4-(methanesulfonamido-methyl)-phenyl]-urea] was 9 nM.
With `CC(C(=O)NCc1cc(C(C)(C)C)nn1-c1cccc(C(F)(F)F)c1)c1ccc(CNS(C)(=O)=O)c(F)c1` (centres unmarked) [Example B43, N-[[5-tert-Butyl-2-[3-(trifluoromethyl)phenyl]-2H-pyrazol-3-yl]-methyl]-2-[3-fluoro-4-(methanesulfonamido-methyl)-phenyl]-propionamide], the Ki amounted to 1 nM.
Still for that read-out and setting: to `CC(C)(C)c1cc(CNC(=O)Nc2ccc(CNS(C)(=O)=O)cc2)n(-c2cccc(F)c2)n1` [Example B45, 1-[[5-tert-Butyl-2-(3-fluorophenyl)-2H-pyrazol-3-yl]-methyl]-3-[4-(methanesulfonamido-methyl)-phenyl]-urea] belongs 31 nM; to “1-[[5-tert-Butyl-2-(3-chlorophenyl)-2H-pyrazol-3-yl]-methyl]-3-[3-fluoro-4-(hydroxymethyl)-phenyl]-urea [Example A55]”, 3 nM; to `NS(=O)(=O)NCc1ccc(NC(=O)NCc2cc(C(F)(F)F)nn2-c2cccc(F)c2)cc1F` [Example B60, 1-[[2-(3-Fluorophenyl)-5-(trifluoromethyl)-2H-pyrazol-3-yl]-methyl]-3-[3-fluoro-4-[(sulfamoylamino)-methyl]-phenyl]-urea], 25 nM.
In the case of `CC(C(=O)NCc1cc(C(F)(F)F)nn1-c1cccc(Cl)c1)c1ccc(N2CCCS2(=O)=O)c(F)c1` (centres unmarked) [Example C1, N-[[2-(3-Chlorophenyl)-5-(trifluoromethyl)-2H-pyrazol-3-yl]-methyl]-2-[4-(1,1-dioxo-[1,2]thiazolidin-2-yl)-3-fluoro-phenyl]-propionamide], the Ki came to 49 nM.
For the compound “4-[[[5-tert-Butyl-2-(3-chlorophenyl)-2H-pyrazol-3-yl]-methyl-carbamoyl]-methyl]-2-fluoro-N-(4-fluorophenyl)-benzamide [Example E39]”, the Ki stood at 2 nM.
Same read-out and setting: the value for `CC(C(=O)NCc1cc(C(C)(C)C)nn1-c1cccc(Cl)c1)c1ccc(CNS(N)(=O)=O)c(F)c1` (centres unmarked) [Example B93, N-[[5-tert-Butyl-2-(3-chlorophenyl)-2H-pyrazol-3-yl]-methyl]-2-[3-fluoro-4-[(sulfamoylamino)-methyl]-phenyl]-propionamide] was 4 nM; that for `CC(=O)NCc1ccc(C(C)C(=O)NCc2cc(C(F)(F)F)nn2-c2cccc(Cl)c2)cc1F` (centres unmarked) [Example B66, 2-[4-(Acetylamino-methyl)-3-fluoro-phenyl]-N-[[2-(3-chlorophenyl)-5-(trifluoromethyl)-2H-pyrazol-3-yl]-methyl]-propionamide] was 29 nM.
The same measure, in the same setting: to `CC(C(=O)NCc1cc(C(F)(F)F)nn1-c1cccc(Cl)c1)c1ccc(CO)c(Cl)c1` (centres unmarked) [Example A36, 2-[3-Chloro-4-(hydroxymethyl)-phenyl]-N-[[2-(3-chlorophenyl)-5-(trifluoromethyl)-2H-pyrazol-3-yl]-methyl]-propionamide] belongs 0.3 nM; to `CC(C(=O)NCc1cc(C(C)(C)C)nn1-c1ccc(F)cc1)c1ccc(CNS(C)(=O)=O)c(F)c1` (centres unmarked) [Example B21, N-[[5-tert-Butyl-2-(4-fluorophenyl)-2H-pyrazol-3-yl]-methyl]-2-[3-fluoro-4-(methanesulfonamido-methyl)-phenyl]-propionamide], 30 nM.
Same read-out and setting: the value for “N-[[2-(3-Chlorophenyl)-5-cyclopropyl-2H-pyrazol-3-yl]-methyl]-2-[3-fluoro-4-(methanesulfonamido-methyl)-phenyl]-propionamide [Example B4]” was 61 nM; that for `CS(=O)(=O)CCc1ccc(NC(=O)NCc2cc(C(F)(F)F)nn2-c2cccc(Cl)c2)cc1F` [Example D27, 1-[[2-(3-Chlorophenyl)-5-(trifluoromethyl)-2H-pyrazol-3-yl]-methyl]-3-[3-fluoro-4-(2-methylsulfonyl-ethyl)-phenyl]-urea] was 40 nM.
On to `CC(C(=O)NCc1cc(C(C)(C)C)nn1-c1cccc(Cl)c1)c1ccc(CN(C)C)c(F)c1` (centres unmarked) [Example B64, N-[[5-tert-Butyl-2-(3-chlorophenyl)-2H-pyrazol-3-yl]-methyl]-2-[4-(dimethylaminomethyl)-3-fluoro-phenyl]-propionamide], for which the Ki worked out at 45 nM.
Same read-out and setting: the value for `CC(C(=O)NCc1cc(C(C)(C)C)nn1-c1cccc(F)c1)c1ccc(CNS(C)(=O)=O)c(F)c1` (centres unmarked) [Example B9, N-[[5-tert-Butyl-2-(3-fluorophenyl)-2H-pyrazol-3-yl]-methyl]-2-[3-fluoro-4-(methanesulfonamido-methyl)-phenyl]-propionamide] was 6 nM; that for “4-[[[2-(3-Chlorophenyl)-5-(trifluoromethyl)-2H-pyrazol-3-yl]-methyl-carbamoyl]-methyl]-N-phenyl-benzamide [Example E26]” was 25 nM; that for `O=C(NCc1cc(C(F)(F)F)nn1-c1cccc(Cl)c1)Nc1ccc(C(=O)NCCO)c(F)c1` [Example E18] was 37 nM.
For `O=C(NCc1cc(C(F)(F)F)nn1-c1cccc(Cl)c1)Nc1ccc(N2CC(O)C2)c(F)c1` [Example C6, 1-[[2-(3-Chlorophenyl)-5-(trifluoromethyl)-2H-pyrazol-3-yl]-methyl]-3-[3-fluoro-4-(3-hydroxy-azetidin-1-yl)-phenyl]-urea], the Ki was 43 nM.

What is called inhibition is the share of the control response that was lost under treatment. Broadly, the Ki is a dissociation constant, usually derived from enzyme kinetics or from competition with a known ligand.
